Results from EP0210291A1, “Platinum complexes of antitumor agents” (AMERICAN CYANAMID COMPANY, priority 1985, dated 1987).
Several values for one entry are separate records, joined by “and”; a condition that tells them apart may be missing. Equal values may be shown once. Where a name gives a salt, the structure may show the parent alone.

System: lymphocytic leukemia P388
Assay: Lymphocytic leukemia P388 test
Assay type: in vivo, BDF/1 mice
Conditions: for Median Survival: mice with P388 leukemia; for T/Cx100: survival time treated/control
Procedure: Lymphocytic leukemia P388 test
The animals used were BDF/1 mice all of one sex, weighing a minimum of 18 g and all within a 3 g weight range. There were 5 or 6 animals per test group. The tumor transplant was by intraperitoneal injection of 0.5 ml of dilute ascitic fluid containing 10⁶ cells of lymphocytic leukemia P388. The test compounds were administered intraperitoneally on days 1,5 and 9 relative to tumor inoculation, at various doses. The animals were weighed and survivors recorded on a regular basis for 30 days. The median survival time and the ratio of survival time for treated (T)/control (C) animals were calculated. The positive control compound was either 1,4-dihydroxy-5,8-bis[[2-(2-hydroxyethylamino)ethyl]-amino]anthraquinone dihydrochloride or Cisplatin.

[1] = Mus musculus, P388, ip, read-out: T/Cx100
[2] = dose 0.2 mg/kg intraperitoneally on days 1, 5 and 9
[3] = dose 0.6 mg/kg intraperitoneally on days 1, 5 and 9, 0.6 mg/kg
[4] = dose 0.8 mg/kg intraperitoneally on days 1, 5 and 9, 0.8 mg/kg
[5] = dose 1.2 mg/kg intraperitoneally on days 1, 5 and 9
[6] = dose 1.25 mg/kg intraperitoneally on days 1, 5 and 9
[7] = dose 1.5 mg/kg intraperitoneally on days 1, 5 and 9
[8] = dose 2.5 mg/kg intraperitoneally on days 1, 5 and 9
[9] = dose 50 mg/kg intraperitoneally on days 1, 5 and 9
[10] = dose 200 mg/kg intraperitoneally on days 1, 5 and 9

## O=C1c2c(O)ccc(O)c2C(=O)c2c(NCCNCCO)ccc(NCCNCCO)c21 [1,4-dihydroxy-5,8-bis[[2-(2-hydroxyethylamino)ethyl]-amino]anthraquinone dihydrochloride]
[1]
  response vs control in vivo at 0.025 mg/kg: 110%
  response vs control in vivo at 0.1 mg/kg: 136%
  response vs control in vivo at 0.4 mg/kg: 153%
  response vs control in vivo at 1.6 mg/kg: 212%

## N.N.[Cl][Pt][Cl] [Cisplatin]
[2]
  Median Survival: 21 days
  T/Cx100: 210%
[3]
  Median Survival: 21 days and 22.5 days
  T/Cx100: 196% and 221%
[4]
  Median Survival: 26.5 days and 23.5 days
  T/Cx100: 217% and 235%
[5]
  Median Survival: 22 days
  T/Cx100: 206%
[6]
  Median Survival: 13.5 days
  T/Cx100: 132%
[7]
  Median Survival: 22.5 days
  T/Cx100: 184%
[8]
  Median Survival: 16 days
  T/Cx100: 150%

## hydrazinecarboximidamide, compound with platinum chloride (1:1)
[9]
  Median Survival: 20.5 days
  T/Cx100: 174%
[10]
  Median Survival: 23 days
  T/Cx100: 195%
